Laboratory results reported in patent US4469707A, “Method for treatment of senile dementia” (Astra Lakemedel Aktiebolag, priority 1983, dated 1984).
Entries after “also recorded” stand apart in the source; their conditions may differ.

What was measured:
[1] = test system: tremor; assay: Tremor caused by alaproclate per se; format: in vivo, mice; conditions: in words
Experimental: Saline was administered as a blank. The tremor intensity was assessed visually for a 60 min period starting from the injection of oxotremorine and physostigmine respectively.

[2] = test system: physostigmine induced tremor; assay: Potentiation of physostigmine induced tremor; format: in vivo; conditions: mice; for Mean tremor score after pretreatment: score 0-2
Experimental: (§1) Saline was administered as a blank. The tremor intensity was assessed visually for a 60 min period starting from the injection of oxotremorine and physostigmine respectively. The following rating scores were used:
(§2) 1--moderate or discontinuous tremor of the head and forelimbs
(§3) 2--strong tremor involving the whole body

[3] = test system: oxotremorine induced tremor; assay: Potentiation of oxotremorine induced tremor; format: in vivo; conditions: mice; for Mean tremor score after pretreatment: score 0-2
Experimental: as §1, §2, §3

SMILES: CC(N)C(=O)OC(C)(C)Cc1ccc(Cl)cc1 (stereo not drawn) [Alaproclate, 2-(4-chloro-phenyl)-1,1-dimethylethyl-2-aminopropanoate]
- Tremor caused by the compound per se [1]: does not cause tremor
- Potentiation of physostigmine induced tremor ([2]; in words): able to enhance; also recorded: potentiates
- Mean tremor score after pretreatment ([2]; alaproclate 20 mg/kg i.p., 5 min after physostigmine 200 μg/kg s.c.): 0,3
- Mean tremor score after pretreatment ([2]; alaproclate 20 mg/kg i.p., 10 min after physostigmine 200 μg/kg s.c.): 0,8
- Mean tremor score after pretreatment ([2]; alaproclate 20 mg/kg i.p., 15 min after physostigmine 200 μg/kg s.c.): 0,8
- Mean tremor score after pretreatment ([2]; alaproclate 40 mg/kg i.p., 5 min after physostigmine 200 μg/kg s.c.): 0,3
- Mean tremor score after pretreatment ([2]; alaproclate 40 mg/kg i.p., 10 min after physostigmine 200 μg/kg s.c.): 1,0
- Mean tremor score after pretreatment ([2]; alaproclate 40 mg/kg i.p., 15 min after physostigmine 200 μg/kg s.c.): 0,7
- Mean tremor score after pretreatment ([2]; alaproclate 40 mg/kg i.p., 30 min after physostigmine 200 μg/kg s.c.): 0,3
- Mean tremor score after pretreatment ([2]; alaproclate 60 mg/kg i.p., 5 min after physostigmine 200 μg/kg s.c.): 0,7
- Mean tremor score after pretreatment ([2]; alaproclate 60 mg/kg i.p., 10 min after physostigmine 200 μg/kg s.c.): 1,3
- Mean tremor score after pretreatment ([2]; alaproclate 60 mg/kg i.p., 15 min after physostigmine 200 μg/kg s.c.): 0,8
- Mean tremor score after pretreatment ([2]; alaproclate 60 mg/kg i.p., 30 min after physostigmine 200 μg/kg s.c.): 0,7
- Potentiation of oxotremorine induced tremor ([3]; in words): able to enhance; also recorded: potentiates
- Mean tremor score after pretreatment ([3]; alaproclate 20 mg/kg i.p., 10 min after oxotremorine 100 μg/kg s.c.): 0,7
- Mean tremor score after pretreatment ([3]; alaproclate 20 mg/kg i.p., 15 min after oxotremorine 100 μg/kg s.c.): 1,0
- Mean tremor score after pretreatment ([3]; alaproclate 20 mg/kg i.p., 30 min after oxotremorine 100 μg/kg s.c.): 0,8
- Mean tremor score after pretreatment ([3]; alaproclate 40 mg/kg i.p., 5 min after oxotremorine 100 μg/kg s.c.): 0,3
- Mean tremor score after pretreatment ([3]; alaproclate 40 mg/kg i.p., 10 min after oxotremorine 100 μg/kg s.c.): 1,0
- Mean tremor score after pretreatment ([3]; alaproclate 40 mg/kg i.p., 15 min after oxotremorine 100 μg/kg s.c.): 1,3
- Mean tremor score after pretreatment ([3]; alaproclate 40 mg/kg i.p., 30 min after oxotremorine 100 μg/kg s.c.): 1,2
- Mean tremor score after pretreatment ([3]; alaproclate 40 mg/kg i.p., 60 min after oxotremorine 100 μg/kg s.c.): 0,5
- Mean tremor score after pretreatment ([3]; alaproclate 60 mg/kg i.p., 5 min after oxotremorine 100 μg/kg s.c.): 0,1
- Mean tremor score after pretreatment ([3]; alaproclate 60 mg/kg i.p., 10 min after oxotremorine 100 μg/kg s.c.): 1,0
- Mean tremor score after pretreatment ([3]; alaproclate 60 mg/kg i.p., 15 min after oxotremorine 100 μg/kg s.c.): 1,5
- Mean tremor score after pretreatment ([3]; alaproclate 60 mg/kg i.p., 30 min after oxotremorine 100 μg/kg s.c.): 1,6
- Mean tremor score after pretreatment ([3]; alaproclate 60 mg/kg i.p., 60 min after oxotremorine 100 μg/kg s.c.): 1,0
